Reference: patent US20100317863A1, “Glucocorticoid Mimetics, Methods of Making Them, Pharmaceutical Compositions and Uses Thereof” (BOEHRINGER INGELHEIM INTERNATIONAL GMBH, priority 2007, published 2010)

Biological target: T1, human glucocorticoid receptor (GR) complex (Homo sapiens, UniProt P04150)
T1 construct: made in house; host or cells: insect expression system (baculovirus lysate)
T1 sequence (P04150 1-777): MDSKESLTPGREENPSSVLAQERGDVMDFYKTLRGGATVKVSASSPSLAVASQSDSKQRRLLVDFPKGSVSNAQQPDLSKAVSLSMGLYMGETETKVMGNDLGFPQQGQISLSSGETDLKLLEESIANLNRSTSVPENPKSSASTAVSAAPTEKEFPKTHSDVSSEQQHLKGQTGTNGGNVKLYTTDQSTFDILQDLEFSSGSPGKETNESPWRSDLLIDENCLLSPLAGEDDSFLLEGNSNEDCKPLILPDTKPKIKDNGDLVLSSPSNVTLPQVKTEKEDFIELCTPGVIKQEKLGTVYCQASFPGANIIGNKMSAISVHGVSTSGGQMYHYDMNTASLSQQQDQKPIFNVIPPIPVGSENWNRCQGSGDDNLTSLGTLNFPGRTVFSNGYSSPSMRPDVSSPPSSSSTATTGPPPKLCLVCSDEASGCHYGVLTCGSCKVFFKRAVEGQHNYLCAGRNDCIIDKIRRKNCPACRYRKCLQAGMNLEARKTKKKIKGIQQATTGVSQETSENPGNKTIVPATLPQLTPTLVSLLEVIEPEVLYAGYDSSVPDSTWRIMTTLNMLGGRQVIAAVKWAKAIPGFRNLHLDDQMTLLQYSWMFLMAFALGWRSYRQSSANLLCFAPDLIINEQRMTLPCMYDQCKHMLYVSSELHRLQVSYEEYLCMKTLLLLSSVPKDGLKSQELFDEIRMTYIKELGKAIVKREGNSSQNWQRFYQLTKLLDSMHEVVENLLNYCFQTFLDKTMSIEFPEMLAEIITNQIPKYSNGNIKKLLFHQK
Assay: Glucocorticoid Receptor Competitive Binding Assay (fluorescence polarization)
Conditions: competition with TAMRA-labeled dexamethasone; potent activity
Protocol: Compounds of the invention were evaluated for binding to the steroid receptor by a fluorescence polarization competitive binding assay. Detailed descriptions for preparation of recombinant glucocorticoid receptor (GR) complex used in the assay is described in U.S. Patent Application Publication No. US 2003/0017503, filed May 20, 2002, and incorporated herein by reference in its entirety. Preparation of the tetramethylrhodamine (TAMRA)-labeled dexamethasone probe was accomplished using a standard literature procedure (M. Pons et al., J. Steroid Biochem., 1985, 22, pp. 267-273).
This assay uses fluorescence polarization (FP) to quantitate the ability of test compounds to compete with tetramethylrhodamine (TAMRA)-labeled dexamethasone for binding to a human glucocorticoid receptor (GR) complex prepared from an insect expression system. The assay buffer was: 10 mM TES, 50 mM KCl, 20 mM Na2MoO4.2H2O, 1.5 mM EDTA, 0.04% w/v CHAPS, 10% v/v glycerol, 1 mM dithiothreitol, pH 7.4. Test compounds were dissolved to 1 mM in neat DMSO and then further diluted to 10× assay concentration in assay buffer supplemented with 10% v/v DMSO. Test compounds were serially diluted at 10× assay concentrations in 10% DMSO-containing buffer in 96-well polypropylene plates. Binding reaction mixtures were prepared in 96-well black Dynex microtiter plates by sequential addition of the following assay components to each well: 15 μL of 10× test compound solution, 85 μL of GR-containing baculovirus lysate diluted 1:170 in assay buffer, and 50 μL of 15 nM TAMRA-labeled dexamethasone. Positive controls were reaction mixtures containing no test compound; negative controls (blanks) were reaction mixtures containing 0.7 μM to 2 μM dexamethasone. The binding reactions were incubated for 1 hour at room temperature and then read for fluorescence polarization in the LJL Analyst set to 550 nm excitation and 580 nm emission, with the Rhodamine 561 dichroic mirror installed. IC50 values were determined by iterative non-linear curve fitting of the FP signal data to a 4-parameter logistic equation.

Structure (SMILES) | IC50 [nM]
Cc1cc(C)c(S(=O)(=O)N(C)[C@@H](C)Cn2cc(C#N)c3cccc(F)c32)c(N)c1 [2-Amino-N—[(S)-2-(3-cyano-7-fluoroindol-1-yl)-1-methylethyl]-4,6,N-trimethylbenzenesulfonamide] | ≤ 100
Cc1cc(C)c(S(=O)(=O)N[C@@H](C)Cn2cc(C#N)c3ccccc32)c(N)c1 [2-Amino-N—[(S)-2-(3-cyanoindol-1-yl)-1-methylethyl]-4,6-dimethylbenzenesulfonamide] | ≤ 100
Cc1cc(C)c(S(=O)(=O)N[C@@H](C)Cn2cc(CC#N)c3cc(F)ccc32)c(N)c1 [2-Amino-N—[(S)-2-(3-cyanomethyl-5-fluoroindol-1-yl)-1-methylethyl]-4,6-dimethylbenzenesulfonamide] | ≤ 100
Cc1cc(C)c(S(=O)(=O)N[C@@H](C)Cn2cc(CC#N)c3cccc(F)c32)c(N)c1 [2-Amino-N—[(S)-2-(3-cyanomethyl-7-fluoroindol-1-yl)-1-methylethyl]-4,6-dimethylbenzenesulfonamide] | ≤ 100
Cc1cc(C)c(S(=O)(=O)N[C@@H](C)Cn2cc(CC#N)c3ccccc32)c(N)c1 [2-Amino-N—[(S)-2-(3-cyanomethylindol-1-yl)-1-methylethyl]-4,6-dimethylbenzenesulfonamide] | ≤ 100
Cc1cc(C)c(S(=O)(=O)N[C@@H](C)Cn2cc(C)c3cccc(F)c32)c(N)c1 [2-Amino-N—[(S)-2-(7-fluoro-3-methylindol-1-yl)-1-methylethyl]-4,6-dimethylbenzenesulfonamide] | ≤ 100
CC[C@@H](Cn1cc(C)c2ccccc21)NS(=O)(=O)c1c(C)cc(C)cc1Br [2-Bromo-4,6-dimethyl-N—[(S)-1-(3-methylindol-1-ylmethyl)propyl]benzenesulfonamide] | ≤ 100
CC[C@@H](Cn1cc(C#N)c2cc(F)ccc21)NS(=O)(=O)c1c(Cl)cc(-c2ccc(N(C)C)cc2)cc1Cl [3,5-Dichloro-4′-dimethylaminobiphenyl-4-sulfonic acid [(S)-1-(3-cyano-5-fluoroindol-1-ylmethyl)propyl]amide] | ≤ 100
CC[C@@H](Cn1cc(C#N)c2cc(F)ccc21)NS(=O)(=O)c1c(Cl)cc(Br)cc1Cl [4-Bromo-2,6-dichloro-N—[(S)-1-(3-cyano-5-fluoroindol-1-ylmethyl)propyl]benzenesulfonamide] | ≤ 100
Cc1cc(C)c(S(=O)(=O)NC(Cn2ccc3ccccc32)C(C)(C)C)c(C)c1 (stereo not drawn) [N-(1-Indol-1-ylmethyl-2,2-dimethylpropyl)-2,4,6-trimethylbenzenesulfonamide] | ≤ 100
Cc1cc(C)c(S(=O)(=O)NC(Cn2ccc3ccccc32)C(C)C)c(C)c1 (stereo not drawn) [N-(1-Indol-1-ylmethyl-2-methylpropyl)-2,4,6-trimethylbenzenesulfonamide] | ≤ 100
Cc1cc(C)c(S(=O)(=O)NC(CN2CCCc3ccccc32)C(C)C)c(C)c1 (stereo not drawn) [N-[1-(3,4-Dihydro-2H-quinolin-1-ylmethyl)-2-methylpropyl]-2,4,6-trimethylbenzenesulfonamide] | ≤ 100
CC[C@@H](Cn1cc(Br)c2cccnc21)NS(=O)(=O)c1c(C)cc(C)cc1C [N—[(S)-1-(3-Bromopyrrolo[2,3-b]pyridin-1-ylmethyl)propyl]-2,4,6-trimethylbenzenesulfonamide] | ≤ 100
CC[C@@H](Cn1c(C)c(C#N)c2ccccc21)NS(=O)(=O)c1c(C)cc(C)cc1C [N—[(S)-1-(3-Cyano-2-methylindol-1-ylmethyl)propyl]-2,4,6-trimethylbenzenesulfonamide] | ≤ 100
CC[C@@H](Cn1cc(C#N)c2cc(F)ccc21)NS(=O)(=O)c1c(C)cc(C)cc1C [N—[(S)-1-(3-Cyano-5-fluoroindol-1-ylmethyl)propyl]-2,4,6-trimethylbenzenesulfonamide] | ≤ 100
CC[C@@H](Cn1cc(C#N)c2ccccc21)NS(=O)(=O)c1c(C)cc(C)cc1C [N—[(S)-1-(3-Cyanoindol-1-ylmethyl)propyl]-2,4,6-trimethylbenzenesulfonamide] | ≤ 100
CC[C@@H](Cn1cc(CC#N)c2ccccc21)NS(=O)(=O)c1c(C)cc(C)cc1C [N—[(S)-1-(3-Cyanomethylindol-1-ylmethyl)propyl]-2,4,6-trimethylbenzenesulfonamide] | ≤ 100
CC[C@@H](Cn1c(C)cc2cc(Cl)ccc21)NS(=O)(=O)c1c(C)cc(C)cc1C [N—[(S)-1-(5-Chloro-2-methylindol-1-ylmethyl)propyl]-2,4,6-trimethylbenzenesulfonamide] | ≤ 100
CC[C@@H](Cn1cc(C=O)c2cc(F)ccc21)NS(=O)(=O)c1c(C)cc(C)cc1C [N—[(S)-1-(5-Fluoro-3-formylindol-1-ylmethyl)propyl]-2,4,6-trimethylbenzenesulfonamide] | ≤ 100
CC[C@@H](CN1CCCc2cc(Br)ccc21)NS(=O)(=O)c1c(C)cc(C)cc1C [N—[(S)-1-(6-Bromo-3,4-dihydro-2H-quinolin-1-ylmethyl)propyl]-2,4,6-trimethylbenzenesulfonamide] | ≤ 100
CC[C@@H](CN1CCCc2cc(C#N)ccc21)NS(=O)(=O)c1c(C)cc(C)cc1C [N—[(S)-1-(6-Cyano-3,4-dihydro-2H-quinolin-1-ylmethyl)propyl]-2,4,6-trimethylbenzenesulfonamide] | ≤ 100
